Source: BindingDB's records for patent US20250313535 (Dice Molecules Sv, 2025)

Target: Integrin alpha-4/beta-7 (Homo sapiens, UniProt P13612+P26010)
Assay: Inhibition of α4β7 and α4β1 Integrins
Method: MAdCAM (R&D Systems, 0.1 ug) was diluted in 50 μL PBS, added to each well of an opaque ELISA plate (Thermo), and incubated overnight at 4° C. Coated plates were washed once with PBS and then blocked with 200 μL of assay buffer (10 mM HEPES, 150 mM NaCl, 1 mM MnCl2, 0.1 mM CaCl2), 1% BSA) for 1 hour at 37° C. and 5% CO2. After incubation, buffer was aspirated from the plates and 50 μL of fresh assay buffer is added. Compounds were added by a compouns dispenser (Tecan) and DMSO concentration was normalized to 1% across each plate. 50 μL of RPMI-8866 cells (2×10^6 per mL) were added to each well and the plates were incubated for 1 hour at 37° C. and 5% CO2. After incubation, plates were allowed to cool to RT for 10 minutes before being washed four times in assay buffer by an automated plate washer (BioTek). After washing, 100 μL of a 1:1 mixture of assay buffer and CellTiter GLO 2.0 reagent (Promega) were added to each well. Plates were mixed for 2 minutes at 1000 rpm and then allowed to incubate an additional 10 minutes before reading out luminescence on a Tecan Spark plate reader. Raw data was converted to percent inhibition based on DMSO only and control compound wells, and curves were analyzed by 4-parameter fit within Dotmatics software.

Sequence of Integrin alpha-4/beta-7 (P13612 whole entry): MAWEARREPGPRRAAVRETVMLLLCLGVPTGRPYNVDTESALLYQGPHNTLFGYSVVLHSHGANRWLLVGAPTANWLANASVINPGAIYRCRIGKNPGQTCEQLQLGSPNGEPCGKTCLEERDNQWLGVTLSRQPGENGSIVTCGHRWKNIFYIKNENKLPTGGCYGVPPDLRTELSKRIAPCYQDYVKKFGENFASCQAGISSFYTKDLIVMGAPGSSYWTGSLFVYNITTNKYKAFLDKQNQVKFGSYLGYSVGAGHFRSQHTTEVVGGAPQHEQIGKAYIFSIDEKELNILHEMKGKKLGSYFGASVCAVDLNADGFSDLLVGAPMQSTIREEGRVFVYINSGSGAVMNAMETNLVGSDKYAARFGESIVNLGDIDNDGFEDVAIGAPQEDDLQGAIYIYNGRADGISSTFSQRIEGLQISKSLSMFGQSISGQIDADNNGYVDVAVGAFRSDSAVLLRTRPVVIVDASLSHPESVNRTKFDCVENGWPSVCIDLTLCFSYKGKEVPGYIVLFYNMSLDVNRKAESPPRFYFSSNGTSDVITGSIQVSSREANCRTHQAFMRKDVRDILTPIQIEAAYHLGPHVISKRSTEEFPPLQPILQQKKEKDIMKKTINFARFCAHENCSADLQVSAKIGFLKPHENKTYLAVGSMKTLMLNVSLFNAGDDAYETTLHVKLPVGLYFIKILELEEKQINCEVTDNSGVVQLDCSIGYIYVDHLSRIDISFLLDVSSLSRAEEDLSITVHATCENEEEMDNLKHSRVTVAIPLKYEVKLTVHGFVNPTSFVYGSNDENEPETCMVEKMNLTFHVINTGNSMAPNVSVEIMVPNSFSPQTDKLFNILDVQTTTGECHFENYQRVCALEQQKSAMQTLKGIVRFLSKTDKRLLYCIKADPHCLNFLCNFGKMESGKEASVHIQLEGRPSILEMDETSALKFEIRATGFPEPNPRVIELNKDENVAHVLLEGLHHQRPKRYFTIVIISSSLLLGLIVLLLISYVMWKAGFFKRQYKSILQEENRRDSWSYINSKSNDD
Sequence of Integrin alpha-4/beta-7 (P26010 whole entry): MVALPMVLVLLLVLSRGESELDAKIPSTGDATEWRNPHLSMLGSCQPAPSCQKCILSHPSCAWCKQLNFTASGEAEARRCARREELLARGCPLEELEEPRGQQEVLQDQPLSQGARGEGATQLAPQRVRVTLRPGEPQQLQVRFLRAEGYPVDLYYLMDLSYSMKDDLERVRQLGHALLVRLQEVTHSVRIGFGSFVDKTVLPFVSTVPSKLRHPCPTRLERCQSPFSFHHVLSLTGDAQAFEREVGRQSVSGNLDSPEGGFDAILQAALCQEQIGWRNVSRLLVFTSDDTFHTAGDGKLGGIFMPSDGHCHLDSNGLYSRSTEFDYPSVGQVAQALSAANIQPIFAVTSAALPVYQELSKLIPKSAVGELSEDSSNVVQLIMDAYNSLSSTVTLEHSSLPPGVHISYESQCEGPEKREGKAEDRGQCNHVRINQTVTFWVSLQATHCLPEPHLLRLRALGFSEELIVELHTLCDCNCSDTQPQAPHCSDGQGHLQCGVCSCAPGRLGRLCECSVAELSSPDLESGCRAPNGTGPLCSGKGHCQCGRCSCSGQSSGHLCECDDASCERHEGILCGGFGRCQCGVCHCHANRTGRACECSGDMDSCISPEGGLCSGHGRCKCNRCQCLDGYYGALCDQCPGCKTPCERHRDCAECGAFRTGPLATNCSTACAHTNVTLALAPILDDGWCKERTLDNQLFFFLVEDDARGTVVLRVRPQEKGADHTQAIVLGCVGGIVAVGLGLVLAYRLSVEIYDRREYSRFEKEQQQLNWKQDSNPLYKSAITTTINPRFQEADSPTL

Compound	IC50
Cn1ccc(C(F)(F)F)c(-c2nccc3c(C[C@H](NC(=O)c4c(F)cc(N(CC(F)(F)F)CC(F)(F)F)cc4F)C(=O)O)cccc23)c1=O [US20250313535, Compound 237]	< 10 nM
Cn1c(=O)c(-c2cccc3c(C[C@H](NC(=O)c4c(F)cc(NC5CCC(F)(F)C5)cc4F)C(=O)O)cccc23)c(C(F)(F)F)c2ccccc21 (some centres not stated) [US20250313535, Compound 386]	> 100 nM
